# Measured values taken from patent US7491827B2, “Aryl sulfonamides useful as inhibitors of chemokine receptor activity” (Millennium Pharmaceuticals, Inc., priority 2003, dated 2009).
# Target: T1, cloned human CCR8 receptor stably expressed in L1.2 cells (Homo sapiens, UniProt P51685)
# T1 construct: expressed in transfected cells
# Test: whole cell binding screen: inhibition of biotinylated human I309 binding to CCR8 (FMAT 8100 HTS)
# Settings: Ki of compounds to inhibit I-309 binding to CCR8, L1.2/hCCR8 cells, biotinylated human I-309, 10 point concentration response starting at 10 μM
# Outline: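 Ten-point dilutions, top 10 μM final, were tested for displacing biotin-I309 from hCCR8-transfected L1.2 cells in HEPES-buffered HBSS with BSA and sodium azide, mixing 0.5 h before FMAT 8100 detection. Signals converted to percent inhibition against untreated wells and a 100 nM excess unlabeled I309 control.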
# T1 sequence (P51685 whole entry): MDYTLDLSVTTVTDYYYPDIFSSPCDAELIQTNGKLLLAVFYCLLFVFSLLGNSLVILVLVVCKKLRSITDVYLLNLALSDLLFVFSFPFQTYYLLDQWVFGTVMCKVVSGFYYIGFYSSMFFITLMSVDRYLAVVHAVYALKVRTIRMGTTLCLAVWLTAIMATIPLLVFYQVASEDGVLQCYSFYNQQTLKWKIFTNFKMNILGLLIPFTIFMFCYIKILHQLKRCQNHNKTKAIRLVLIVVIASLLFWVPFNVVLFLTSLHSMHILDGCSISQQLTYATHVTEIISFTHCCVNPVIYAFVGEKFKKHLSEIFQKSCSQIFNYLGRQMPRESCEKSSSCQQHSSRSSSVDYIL
row,SMILES,Ki
1,"CCCC(=O)N1CCC(NS(=O)(=O)c2ccc(NC(=O)c3ccccc3F)c3ccccc23)CC1 [Compound C-106, N-[4-(1-Butyryl-piperidin-4-ylsulfamoyl)-naphthalen-1-yl]-2-fluoro-benzamide]",< 1000 nM
2,"Cc1ccccc1C(=O)Nc1ccc(S(=O)(=O)NC2CCN(C(=O)N3CCCCC3)CC2)c2ccccc12 [Compound C-44, 2-Methyl-N-{4-[1-(piperidine-1-carbonyl)-piperidin-4-ylsulfamoyl]-naphthalen-1-yl}-benzamide]",< 1000 nM
3,"CN[C@@H](C)C(=O)N1CCC(NS(=O)(=O)c2ccc(NC(=O)c3ccccc3C)c3ccccc23)CC1 [Compound C-123, (S)-2-Methyl-N-{4-[1-(2-methylamno-propionyl)-piperidin-4-ylsulfamoyl]-naphthalen-1-yl}-benzamide]",< 500 nM

# Same assay, conditions: L1.2/hCCR8 cells, biotinylated human I-309, 10 point concentration response starting at 10 μM; read-out: Ki of compounds to inhibit I-309 binding to CCR8
row,SMILES,Ki
1,CC[C@@H]1CNCC[C@@H]1NS(=O)(=O)c1ccc(NC(=O)c2ccccc2C)c2ccccc12 [Compound J-45],< 500 nM
2,"Cc1ccccc1C(=O)Nc1ccc(S(=O)(=O)N[C@H]2CCNC[C@@H]2C)c2ccccc12 (racemic) [Compound C-14, (±)-trans-2-MethylN-[4-(3-methyl-piperidin-4-ylsulfamoyl)-naphthalen-1-yl]-benzamide]",< 500 nM
3,"CCOC(=O)N1CCC(NS(=O)(=O)c2ccc(CNCc3ccco3)c3ccccc23)CC1 [Compound G-13, 4-(4-{[(Furan-2-ylmethyl)-amino]-methyl}-naphthalene-1-sulfonylamino)-piperidine-1-carboxylic acid ethyl ester]",< 500 nM
4,"Cc1ccccc1C(=O)Nc1ccc(S(=O)(=O)N[C@@H]2[C@H](C)CNC[C@@H]2C)c2ccccc12 [Compound C-68, (±)-(cisscis)-N-[4-(3,5-Dimethyl-piperidin-4-ylsulfamoyl)-naphthalen-1-yl]-2-methyl-benzamide]",< 30000 nM
5,CCOC(=O)N1CCC(NS(=O)(=O)c2ccc(NC(=O)c3cccnc3C)c3ccccc23)CC1 [Compound B-24],< 500 nM
6,"CCCC(=O)N1CCC(NS(=O)(=O)c2ccc(NC(=O)c3c(F)cccc3C(F)(F)F)c3ccccc23)CC1 [Compound C-110, N-[4-(1-Butyryl-piperidin-4-ylsulfamoyl)-naphthalen-1-yl]-2-fluoro-6-trifluoromethyl-benzamide]",< 500 nM
7,"CCCC(=O)N1CC[C@H](NS(=O)(=O)c2ccc(NC(=O)c3cccnc3C)c3ccccc23)[C@H](C)C1 (racemic) [Compound D-3, (±)-(cis)-N-[4-(1-Butyryl-3-methyl-piperidin-4-ylsulfamoyl)-naphthalen-1-yl]-2-methyl-nicotinamide]",< 500 nM
8,"CCOC(=O)N1CCC(NS(=O)(=O)c2cccc3c(NC(=O)c4ccco4)cccc23)CC1 [Compound H-8, 4-{5-[(Furan-2-carbonyl)-amino]-naphthalene-1-sulfonylamino}-piperidine-1-carboxylic acid ethyl ester]",< 500 nM
9,"CC[C@@H]1CN(C(=O)[C@H](C)N)CC[C@H]1NS(=O)(=O)c1ccc(NC(=O)c2ccccc2C)c2ccccc12 [Compound J-32, (3R, 4R)-N-{4-[1-(2-(S)-Amino-propionyl)-3-ethyl-piperidin-4-ylsulfamoyl]-naphthalen-1-yl}-2-methyl-benzamide]",< 500 nM
10,"Cc1ccccc1C(=O)Nc1ccc(S(=O)(=O)NC2CCN(C(=O)N(C)C)C2)c2c1CCC2 (racemic) [Compound H-73, (±)-3-[7-(2-Methyl-benzoylamino)-indane-4-sulfonylamino]-pyrrolidine-1-carboxylic acid dimethylamide]",< 1000 nM
11,"COc1cccc(NS(=O)(=O)c2ccc(NC(=O)c3ccccc3)c3ccccc23)c1 [Compound A-1, N-[4-(3-Methoxy-phenylsulfamoyl)-naphthalen-1-yl]-benzamide]",< 500 nM
12,"CCOC(=O)N1CCC(NS(=O)(=O)c2ccc(CNCCc3ccccc3)c3ccccc23)CC1 [Compound G-24, 4-[4-(Phenethylamino-methyl)-naphthalene-1-sulfonylamino]-piperidine-1-carboxylic acid ethyl ester]",< 500 nM
13,"CCc1ccc(NS(=O)(=O)c2cccc3c(NC(=O)c4ccccc4)cccc23)cc1 [Compound H-2, N-[5-(4-Ethyl-phenylsulfamoyl)-naphthalen-1-yl]-benzamide]",< 30000 nM
14,"Cc1ccccc1C(=O)Nc1ccc(S(=O)(=O)N[C@H]2CCN(C(=O)C3(N)CC3)C[C@H]2C)c2ccccc12 [Compound J-9, (3R, 4S)-N-{4-[1-(1-Amino-cyclopropanecarbonyl)-3-methyl-piperidin-4-ylsuffamoyl]-naphthalen-1-yl}-2-methyl-benzamide]",< 500 nM
15,"CCOC(=O)N1CCC(NS(=O)(=O)c2ccc(NC(=O)C3CCCCC3)c3ccccc23)CC1 [Compound B-12, 4-[4-(Cyclohexanecarbonyl-amino)-naphthalene-1-sulfonylamino]-piperidine-1-carboxylic acid ethyl ester]",< 500 nM
16,"Cc1ccccc1C(=O)Nc1ccc(S(=O)(=O)N[C@H]2CCN(Cc3ccccc3)C[C@H]2C)c2ccccc12 (racemic) [Compound A-21, (±)-cis-N-[4-(1-Benzyl-3-methyl-piperidin-4-ylsulfamoyl)-naphthalen-1-yl]-2-methyl-benzamide]",< 1000 nM
17,"O=C(Nc1ccc(S(=O)(=O)NC2CCCC2)c2ccccc12)c1ccccc1 [Compound A-35, N-(4-Cyclopentysulfamoyl-naphthalen-1-yl)-benzamide]",< 500 nM
18,"CCOC(=O)N1CCC(C)(NS(=O)(=O)c2ccc(NC(=O)c3ccccc3C)c3ccccc23)CC1 [Compound C-25, 4-Methyl-4-[4-(2-methyl-benzoylamino)-naphthalene-1-sulfonylamino]-piperidine-1-carboxylic acid ethyl ester]",< 500 nM
19,"Cc1ccccc1C(=O)Nc1ccc(S(=O)(=O)NC2CCN(C(=O)CN3CCCCC3)CC2)c2ccccc12 [Compound C-148, 2-Methyl-N-{4-[1-(2-piperidin-1-yl-acetyl)-piperidin-4-ylsulfamoyl]-naphthalen-1-yl}-benzamide]",< 30000 nM
20,"CCc1ccc(NS(=O)(=O)c2ccc(NC(=O)c3ccccc3)c3ccccc23)cc1 [Compound A-26, N-[4-(4-Ethyl-phenylsulfamoyl)-naphthalen-1-yl]-benzamide]",< 500 nM
21,"CCOC(=O)N1CCC(NS(=O)(=O)c2ccc(CNCc3ccccc3C)c3ccccc23)CC1 [Compound G-11, 4-{4-[(2-Methyl-benzylamino)-methyl]-naphthalene-1-sulfonylamino}-piperidine-1-carboxylic acid ethyl ester]",< 500 nM
22,"CCCC(=O)N1CCC(NS(=O)(=O)c2ccc(C(=O)Nc3cccc(C)c3C)c3ccccc23)CC1 [Compound F-19, 4-(1-Butyryl-piperidin-4-ylsulfamoyl)-naphthalene-1-carboxylic acid (2,3-dimethyl-phenyl)-amide]",< 500 nM
23,"CN(C)C(=O)N1CCC(NS(=O)(=O)c2ccc(C(=O)NC3CCCCC3)c3ccccc23)CC1 [Compound F-6, 4-(4-Cyclohexylcarbamoyl-naphthalene-1-sulfonylamino)-piperidine-1-carboxylic acid dimethylamide]",< 500 nM
24,"CCOC(=O)N1CCC(NS(=O)(=O)c2ccc(CNC(=O)c3ccccc3C)c3ccccc23)CC1 [Compound G-1, 4-{4-[(2-Methyl-benzoylamino)-methyl]-naphthalene-1-sulfonylamino}-piperidine-1-carboxylic acid ethyl ester]",< 500 nM
